Laboratory results: patent publication US10087178B2, “Substituted spiropyrido[1,2-a]pyrazine derivative and medicinal use thereof as HIV integrase inhibitor” (priority 2012, dated 2018)
Counter-ions that a name gives are not always drawn.

Test system: HIV-1 NL4-3 strain
Experiment: Evaluation of antiviral activity: acute infection system of MT-4 cell with HIV-1 NL4-3 strain
Assay type: cell-based
Details: Human immunodeficiency virus 1, NL43, MT4, 120 h, MT-4 cells infected with HIV-1 NL4-3 strain (MOI 0.05), cultured 5 days, Cell Titer-Glo; read-out: antiviral activity (EC50)

`CCN1C(=O)c2c(O)c(=O)c(C(=O)NCc3cccc(Cl)c3F)cn2C[C@]12C[C@H](COC)C2` [Example S61, N-(3-chloro-2-fluorobenzyl)-2′-ethyl-9′-hydroxy-cis-3-(methoxymethyl)-1′,8′-dioxo-1′,2′,4′,8′-tetrahydrospiro[cyclobutane-1,3′-pyrido[1,2-a]pyrazine]-7′-carboxamide hydrochloride] and `CCN1C[C@]2(C[C@H](COC)C2)n2cc(C(=O)NCc3cccc(Cl)c3F)c(=O)c(O)c2C1=O` [Example S47, N-(3-chloro-2-fluorobenzyl)-2′-ethyl-9′-hydroxy-cis-3-(methoxymethyl)-1′,8′-dioxo-1′,2′,3′,8′-tetrahydrospiro[cyclobutane-1,4′-pyrido[1,2-a]pyrazine]-7′-carboxamide hydrochloride] are within 1.5-fold of each other in EC50: 5.1 nM for the first, 3.5 nM for the second.

Compared with `CCN1C[C@]2(C[C@@H](CO)C2)n2cc(C(=O)NCc3cccc(Cl)c3F)c(=O)c(O)c2C1=O` [Example S44, N-(3-chloro-2-fluorobenzyl)-2′-ethyl-9′-hydroxy-trans-3-(hydroxymethyl)-1′,8′-dioxo-1′,2′,3′,8′-tetrahydrospiro[cyclobutane-1,4′-pyrido[1,2-a]pyrazine]-7′-carboxamide hydrochloride], `CCOC[C@H]1C[C@]2(CN(C)C(=O)c3c(O)c(=O)c(C(=O)NCc4cccc(Cl)c4F)cn32)C1` [Example S39, N-(3-chloro-2-fluorobenzyl)- cis-3-(ethoxymethyl)-9′-hydroxy-2′-methyl-1′,8′-dioxo-1′,2′,3′,8′-tetrahydrospiro[cyclobutane-1,4′-pyrido[1,2-a]pyrazine]-7′-carboxamide hydrochloride] is 3.1-fold lower in EC50: 11 nM for the first, 3.5 nM for the second. The second is the more potent here.

`CO[C@H]1C[C@]2(CN(C)C(=O)c3c(OC(=O)C(C)C)c(=O)c(C(=O)NCc4cccc(Cl)c4F)cn32)C1` [Example S66, 7′-(3-chloro-2-fluorobenzylcarbamoyl)-cis-3-methoxy-2′-methyl-1′,8′-dioxo-1′,2′,3′,8′-tetrahydrospiro[cyclobutane-1,4′-pyrido[1,2-a]pyrazin]-9′-yl isobutyrate] and `CCC(=O)Oc1c2n(cc(C(=O)NCc3cccc(Cl)c3F)c1=O)[C@]1(CN(C)C2=O)C[C@H](OC)C1` [Example S65, 7′-(3-chloro-2-fluorobenzylcarbamoyl)-cis-3-methoxy-2′-methyl-1′,8′-dioxo-1′,2′,3′,8′-tetrahydrospiro[cyclobutane-1,4′-pyrido[1,2-a]pyrazin]-9′-yl propionate] are within 1.5-fold of each other in EC50: 0.9 nM for the first, 1 nM for the second.

`CCCCCCCCCCCCCCCC(=O)Oc1c2n(cc(C(=O)NCc3cccc(Cl)c3F)c1=O)[C@]1(CN(C)C2=O)C[C@H](COC)C1` [Example S69, 7′-(3-chloro-2-fluorobenzylcarbamoyl)-cis-3-(methoxymethyl)-2′-methyl-1′,8′-dioxo-1′,2′,3′,8′-tetrahydrospiro[cyclobutane-1,4′-pyrido[1,2-a]pyrazin]-9′-yl palmitate] and `COC[C@H]1C[C@]2(CN(C)C(=O)c3c(OC(C)=O)c(=O)c(C(=O)NCc4cccc(Cl)c4F)cn32)C1` [Example 37, 7′-(3-chloro-2-fluorobenzylcarbamoyl)-cis-3-(methoxymethyl)-2′-methyl-1′,8′-dioxo-1′,2′,3′,8′-tetrahydrospiro[cyclobutane-1,4′-pyrido[1,2-a]pyrazin]-9′-yl acetate] are within 1.5-fold of each other in EC50: 1 nM for the first, 0.7 nM for the second.

`CC(C)O[C@H]1C[C@]2(CN(C(C)C)C(=O)c3c(O)c(=O)c(C(=O)NCc4ccc(F)cc4F)cn32)C1` [Example S33, N-(2,4-difluorobenzyl)-9′-hydroxy-cis-3-isopropoxy-2′-isopropyl-1′,8′-dioxo-1′,2′,3′,8′-tetrahydrospiro[cyclobutane-1,4′-pyrido[1,2-a]pyrazine]-7′-carboxamide hydrochloride] and `COC[C@H]1C[C@@]2(CN(C(C)C)C(=O)c3c(O)c(=O)c(C(=O)NCc4ccc(F)cc4F)cn32)C1` [Example S25, N-(2,4-difluorobenzyl)-9′-hydroxy-2′-isopropyl-trans-3-(methoxymethyl)-1′,8′-dioxo-1′,2′,3′,8′-tetrahydrospiro[cyclobutane-1,4′-pyrido[1,2-a]pyrazine]-7′-carboxamide hydrochloride] are within 1.5-fold of each other in EC50: 6.4 nM for the first, 7 nM for the second.

Compared with `COC[C@H]1C[C@]2(CN(C)C(=O)c3c(OC(=O)c4ccc(C)cc4)c(=O)c(C(=O)NCc4cccc(Cl)c4F)cn32)C1` [Example S72, 7′-(3-chloro-2-fluorobenzylcarbamoyl)-cis-3-(methoxymethyl)-2′-methyl-1′,8′-dioxo-1′,2′,3′,8′-tetrahydrospiro[cyclobutane-1,4′-pyrido[1,2-a]pyrazin]-9′-yl 4-methylbenzoate], `CO[C@H]1C[C@]2(CN(C)C(=O)c3c(O)c(=O)c(C(=O)NCc4cccc(Cl)c4F)cn32)C1` [Example 23, N-(3-chloro-2-fluorobenzyl)-9′-hydroxy-cis-3-methoxy-2′-methyl-1′,8′-dioxo-1′,2′,3′,8′-tetrahydrospiro[cyclobutane-1,4′-pyrido[, 2-a]pyrazine]-7′-carboxamide] is 1.8-fold higher in EC50: 0.9 nM for the first, 1.6 nM for the second. The first is the more potent here.

`CCOC[C@H]1C[C@@]12Cn1cc(C(=O)NCc3ccc(F)cc3F)c(=O)c(O)c1C(=O)N2C(C)C` [Example T43, (1S,2S)-N-(2,4-difluorobenzyl)-2-(ethoxymethyl)-9′-hydroxy-2′-isopropyl-1′,8′-dioxo-1′,2′,4′,8′-tetrahydrospiro[cyclopropane-1,3′-pyrido[1,2-a]pyrazine]-7′-carboxamide] and `CC(C)N1C[C@]2(C[C@H](CO)C2)n2cc(C(=O)NCc3ccc(F)cc3F)c(=O)c(O)c2C1=O` [Example S22, N-(2,4-difluorobenzyl)-9′-hydroxy-cis-3-(hydroxymethyl)-2′-isopropyl-1′,8′-dioxo-1′,2′,3′,8′-tetrahydrospiro[cyclobutane-1,4′-pyrido[1,2-a]pyrazine]-7′-carboxamide hydrobromide] are within 1.5-fold of each other in EC50: 5.3 nM for the first, 5 nM for the second.

`CN(C)C(=O)[C@H]1C[C@@]12CN(C1CC1)C(=O)c1c(O)c(=O)c(C(=O)NCc3cccc(Cl)c3F)cn12` [Example T32, (1S,2S)-N^7′-(3-chloro-2-fluorobenzyl)-2′-cyclopropyl-9′-hydroxy-N^2,N^2-dimethyl-1′,8′-dioxo-1′,2′,3′,8′-tetrahydrospiro[cyclopropane-1,4′-pyrido[1,2-a]pyrazine]-2,7′-dicarboxamide] was tested, and the EC50 was 3.3 nM.

Same assay, conditions: Human immunodeficiency virus 1, NL43, MT4, 120 h, antiviral activity; MT-4 cells infected with HIV-1 NL4-3 (MOI 0.05), 5 days culture, Cell Titer-Glo luminescence

Compared with `CO[C@H]1C[C@@]2(CN(C)C(=O)c3c(O)c(=O)c(C(=O)NCc4cccc(Cl)c4F)cn32)C1` [Example 2, N-(3-chloro-2-fluorobenzyl)-9′-hydroxy-trans-3-methoxy-2′-methyl-1′,8′-dioxo-1′,2′,3′,8′-tetrahydrospiro[cyclobutane-1,4′-pyrido[1,2-a]pyrazine]-7′-carboxamide hydrochloride], `CC(C)N1C[C@@]2(C[C@H]2CO)n2cc(C(=O)NCc3ccc(F)cc3F)c(=O)c(O)c2C1=O` [Example 15, (1S,2R)—N-(2,4-difluorobenzyl)-9′-hydroxy-2-(hydroxymethyl)-2′-isopropyl-1′,8′-dioxo-1′,2′,3′,8′-tetrahydrospiro[cyclopropane-1,4′-pyrido[1,2-a]pyrazine]-7′-carboxamide hydrochloride] is 1.7-fold higher in EC50: 4.2 nM for the first, 7.2 nM for the second. The first is the more potent here.

With `COC[C@@H]1C[C@]12CN(C(C)C)C(=O)c1c(O)c(=O)c(C(=O)NCc3ccc(F)cc3F)cn12` [Example 12, (1R,2R)—N-(2,4-difluorobenzyl)-9′-hydroxy-2′-isopropyl-2-(methoxymethyl)-1′,8′-dioxo-1′,2′,3′,8′-tetrahydrospiro[cyclopropane-1,4′-pyrido[1,2-a]pyrazine]-7′-carboxamide hydrochloride] the EC50 was 5 nM.

Same assay, conditions: Human immunodeficiency virus 1, NL43, MT4, 120 h, antiviral activity; MT-4 cells infected with HIV-1 NL4-3 (MOI 0.05), 5 days culture, Cell Titer-Glo luminescence; read-out: EC50

Molecule `CC(C)N1CC2(CC(O)C2)n2cc(C(=O)NCc3ccc(F)cc3F)c(=O)c(O)c2C1=O` (single isomer, unassigned) [Example S4, N-(2,4-difluorobenzyl)-cis-3,9′-dihydroxy-2′-isopropyl-1′,8′-dioxo-1′,2′,3′,8′-tetrahydrospiro[cyclobutane-1,4′-pyrido[1,2-a]pyrazine]-7′-carboxamide] has an EC50 of 4.9 nM.

Same assay, conditions: Human immunodeficiency virus 1, NL43, MT4, 120 h, read-out: antiviral activity (EC50), MT-4 cells infected with HIV-1 NL4-3 strain (MOI 0.05), cultured 5 days, Cell Titer-Glo

`CCN1C[C@]2(C[C@H]2COC)n2cc(C(=O)NCc3ccc(F)cc3F)c(=O)c(O)c2C1=O` [Example T9, (1R,2R)-N-(2,4-difluorobenzyl)-2′-ethyl-9′-hydroxy-2-(methoxymethyl)-1′,8′-dioxo-1′,2′,3′,8′-tetrahydrospiro[cyclopropane-1,4′-pyrido[1,2-a]pyrazine]-7′-carboxamide hydrochloride] and `CCN1C[C@@]2(C[C@H]2CO)n2cc(C(=O)NCc3cccc(Cl)c3F)c(=O)c(O)c2C1=O` [Example T29, (1S,2R)-N-(3-chloro-2-fluorobenzyl)-2′-ethyl-9′-hydroxy-2-(hydroxymethyl)-1′,8′-dioxo-1′,2′,3′,8′-tetrahydrospiro[cyclopropane-1,4′-pyrido[1,2-a]pyrazine]-7′-carboxamide hydrochloride] are within 1.5-fold of each other in EC50: 5.8 nM for the first, 4.8 nM for the second.

`CCOc1ccc(CNC(=O)c2cn3c(c(O)c2=O)C(=O)N(C)C[C@@]32C[C@@H]2COC)c(F)c1Cl` [Example T37, (1S,2S)-N-(3-chloro-4-ethoxy-2-fluorobenzyl)-9′-hydroxy-2-(methoxymethyl)-2′-methyl-1′,8′-dioxo-1′,2′,3′,8′-tetrahydrospiro[cyclopropane-1,4′-pyrido[1,2-a]pyrazine]-7′-carboxamide hydrochloride] gave an EC50 of 93 nM.

Same assay, conditions: Human immunodeficiency virus 1, NL43, MT4, 120 h; read-out: antiviral activity (EC50)

`COC[C@H]1C[C@]2(CN(C)C(=O)c3c(O)c(=O)c(C(=O)NCc4cccc(Cl)c4F)cn32)C1` [Example 29, Monopotassium 7′-(3-chloro-2-fluorobenzylcarbamoyl)-cis-3-(methoxymethyl)-2′-methyl-1′,8′-dioxo-1′,2′,3′,8′-tetrahydrospiro[cyclobutane-1,4′-pyrido[1,2-a]pyrazin]-9′-olate] showed an EC50 of 2.5 nM.
